According to US20240158348A1, “HERBICIDAL CYCLIC AMIDES N-SUBSTITUTED WITH A HALOALKYLSULFONYLANILIDE GROUP” (FMC Corporation, priority 2021, published 2024):

Key:
Assay type in all cases: in vivo
[1] = tested on: horseweed (Erigeron canadensis); test: Test C postemergence, horseweed; conditions: for Horseweed plant response rating: visual injury, 0 to 100 scale (0 no effect, 100 complete control); for Plant response rating (0 to 100 scale), Horseweed: 0 is no effect, 100 is complete control
Outline: (§1)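 Greenhouse pot test. Compounds in a non-phytotoxic solvent with surfactant were applied to a loam–sand soil mix either preemergence as a directed spray or postemergence to plants at the one- to two-leaf stage; 0–100 visual ratings followed after 10 or 12 days.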

[2] = tested on: ryegrass, Italian (Italian ryegrass, Lolium multiflorum); test: Test C postemergence, Italian ryegrass; conditions: for Ryegrass, Italian plant response rating: visual injury, 0 to 100 scale (0 no effect, 100 complete control); for Plant response rating (0 to 100 scale), Ryegrass, Italian: 0 is no effect, 100 is complete control
Outline: as §1

[3] = tested on: galium (catchweed bedstraw, Galium aparine); test: Test C postemergence, galium; conditions: for Galium plant response rating: visual injury, 0 to 100 scale (0 no effect, 100 complete control); for Plant response rating (0 to 100 scale), Galium: 0 is no effect, 100 is complete control
[4] = tested on: ryegrass, Italian (Italian ryegrass, Lolium multiflorum); test: Test C preemergence, Italian ryegrass; conditions: 0 is no effect, 100 is complete control
Outline: as §1

[5] = tested on: wheat (Triticum aestivum); test: Test C postemergence, wheat; conditions: for Wheat plant response rating: visual injury, 0 to 100 scale (0 no effect, 100 complete control); for Plant response rating (0 to 100 scale), Wheat: 0 is no effect, 100 is complete control
Outline: as §1

[6] = tested on: ragweed (common ragweed, Ambrosia artemisiifolia); test: Test C preemergence, ragweed; conditions: 0 is no effect, 100 is complete control
Outline: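 Herbicidal effect was estimated visually on a 0–100 scale 10 or 12 days after spraying. Formulation: non-phytotoxic solvent mixture with surfactant. Timing: directed soil spray after sowing, or postemergence on seedlings bearing one or two leaves.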

[7] = tested on: barnyardgrass (Echinochloa crusgalli); test: Test D flooded paddy test, barnyardgrass; parameters: key: 0 = no effect, 100 = complete control; conditions: 250 g ai/ha, Flood; applied to paddy water at 2-leaf stage; visual rating after 13 days; scale 0 (no effect) to 100 (complete control)
Outline: (§2)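 Plants were grown to the 2-leaf stage, then pots were flooded to 3 cm above soil and compounds applied directly into the paddy water, with that depth held throughout. After 13 days in a greenhouse, injury was visually rated against untreated controls on a 0–100 scale (0 no effect, 100 complete control).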

[8] = tested on: sedge, umbrella (small-flower umbrella sedge, Cyperus difformis); test: Test D flooded paddy test, umbrella sedge; parameters: key: 0 = no effect, 100 = complete control; conditions: 250 g ai/ha, Flood; applied to paddy water at 2-leaf stage; visual rating after 13 days; scale 0 (no effect) to 100 (complete control)
Outline: as §2

Structure (SMILES)	Horseweed plant response rating ([1]; 31 g ai/ha Postemergence)	Plant response rating (0 to 100 scale), Horseweed ([1]; 125 g ai/ha Postemergence)	Ryegrass, Italian plant response rating ([2]; 31 g ai/ha Postemergence)	Plant response rating (0 to 100 scale), Ryegrass, Italian ([2]; 125 g ai/ha Postemergence)	Galium plant response rating ([3]; 31 g ai/ha Postemergence)	Plant response rating (0 to 100 scale), Galium ([3]; 125 g ai/ha Postemergence)	Plant response rating (0 to 100 scale), Ryegrass, Italian ([4]; 31 g ai/ha Preemergence)	Plant response rating (0 to 100 scale), Ryegrass, Italian ([4]; 125 g ai/ha Preemergence)	Wheat plant response rating ([5]; 31 g ai/ha Postemergence)	Plant response rating (0 to 100 scale), Wheat ([5]; 125 g ai/ha Postemergence)	Plant response rating (0 to 100 scale), Ragweed ([6]; 31 g ai/ha Preemergence)	Plant response rating (0 to 100 scale), Ragweed ([6]; 125 g ai/ha Preemergence)	Plant response rating, Barnyardgrass [7]	Plant response rating, Sedge, Umbrella [8]	Ryegrass, Italian plant response rating ([2]; 125 g ai/ha Postemergence)	Wheat plant response rating ([5]; 125 g ai/ha Postemergence)	Horseweed plant response rating ([1]; 125 g ai/ha Postemergence)	Galium plant response rating ([3]; 125 g ai/ha Postemergence)
Cc1cc(C)c(N(C(=O)OC(C)C)S(=O)(=O)C(F)(F)F)cc1N1CCC(OC2CC2)C1=O (stereo not drawn) [Compound 18]	0	0	0	0	10	70	0	0	0	0	0	0	0	0				
COC(=O)N(c1cc(N2CCC(OC3CC3)C2=O)c(C)cc1Cl)S(=O)(=O)C(F)(F)F (stereo not drawn) [Compound 40]	80	80	60		80	100	90	100	60		70	90	0	90	80	70		
Cc1c(NS(=O)(=O)C(F)(F)F)cc(N2CCCC(OC3CCC3)C2=O)c(C)c1F (stereo not drawn) [Compound 36]	40	70	0		60	80	100	100	60		70	90	0	95	40	60		
CCOC(=O)N(c1cc(N2CCC(OC3CC3)C2=O)c(C)cc1C)S(=O)(=O)C(F)(F)F (stereo not drawn) [Compound 19]	10	30	0	50	30	90	0	0	0	10	0	10	0	0				
Cc1cc(C)c(N2CCC(OCC3CC3(F)F)C2=O)cc1NS(=O)(=O)C(F)(F)F (stereo not drawn) [Compound 41]	70		30		100		100	100	60		70	90	15	70	100	60	100	100
CC#CCOC1CCN(c2cc(NS(=O)(=O)C(F)(F)F)c(C)cc2C)C1=O (stereo not drawn) [Compound 60]	80		50		100		70	100	80		90	100	90	95	70	90	100	100
Cc1c(N2CCC(OC3CCC3)C2=O)cc(N(C(=O)OCC(C)C)S(=O)(=O)C(F)(F)F)c(C)c1C (stereo not drawn) [Compound 48]	70		40		90		60	100	30		20	90	80	90	60	70	90	100
CCO/N=C1\CCN(c2cc(NS(=O)(=O)C(F)(F)F)c(C)cc2C)C1=O [Compound 12, N-[5-[3-(ethoxyimino)-2-oxo-1-pyrrolidinyl]-2,4-dimethylphenyl]-1,1,1-trifluoromethanesulfonamide]	90	100	70	80	100	100	90	100	80	90	100	100	0	100				
CCCC(=O)OCN(c1cc(N2CCC(OC3CC3)C2=O)c(C)cc1C)S(=O)(=O)C(F)(F)F (stereo not drawn) [Compound 20]	60	90	60	100	90	100	100	100	70	70	60	90	90	98				
CC(=O)N(c1cc(N2CCC(OC3CC3)C2=O)c(C)cc1C)S(=O)(=O)C(F)(F)F (stereo not drawn) [Compound 17]	70	100	60	90	90	100	100	100	70	70	80	90	85	95				
Cc1cc(C)c(N2CCC(O)C2=O)cc1NS(=O)(=O)C(F)(F)F (stereo not drawn) [Compound 14]	90	90	60	100	100	100	40	100	60	60	20	60	0	35				
CC(=O)N(c1cc(N2CCC(OC3CC3)C2=O)c(C)cc1Cl)S(=O)(=O)C(F)(F)F (stereo not drawn) [Compound 38]	90	100	30		90	100	80	100	60		70	90	0	75	70	60		
